Experimental data from the METLIN SMRT retention time set (Domingo-Almenara et al. 2019).

Assay: gradient 5% acetonitrile 3 min, to 50% in 2 min, to 85% in 15 min, held 3 min, 100 µL/min
Conditions: column: Zorbax Extend-C18 2.1 x 50 mm; eluents: water / acetonitrile, 0.1% formic acid
In short: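 A Zorbax Extend-C18 column (2.1 × 50 mm, 1.8 μm) run at 100 μL/min with water and acetonitrile, both containing 0.1% formic acid, separated mixtures of ~100 pure standards. The HPLC was coupled to a quadrupole time-of-flight mass spectrometer operated in positive and negative ionization mode, with dead and dwell volumes of 40 μL and 900 μL. Each retention time was taken from a computationally picked adduct peak that was then manually inspected.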

| SMILES | RP-LC retention time [s] |
| --- | --- |
| CC(C)CN1CCN(C(=O)c2nnc(-c3ccc(S(=O)(=O)N(C)C)cc3)o2)CC1 | 608 |
| O=C(C1CCN(c2cnc(N3CCOCC3)nc2)CC1)N1CCCCC1 | 646 |
| CN1C(=O)[C@]2(CO)SSC1(Cc1cn([C@]34C[C@@]56SS[C@@](CO)(C(=O)N5[C@H]3Nc3ccccc34)N(C)C6=O)c3ccccc13)C(=O)N2C | 898 |
| O=C(CCCc1ccccc1)N1CC(n2ccnc2)C1 | 606 |
| CCOc1ccc(NC(=O)C2CCN(c3cc(N4CCSCC4)ncn3)CC2)cc1 | 693 |
| O=C(COc1ncccn1)Nc1ccc(F)c(F)c1 | 665 |
| CCOC(=O)CCNC(=O)NCc1nnnn1-c1ccc(C)c(C)c1 | 663 |
| Cc1ccc(-n2cc(C(=O)O)nn2)c(F)c1 | 705 |
| O=C(NCc1ccccc1)C1CCc2nc(N3CCOCC3)ncc2C1 (centres undefined) | 696 |
| Cc1cccc(S(=O)(=O)N2CCC(n3cnnc3C3CC3)CC2)c1 | 713 |
| CN(CC1CCOC1)C(=O)Nc1ccc(Cl)cc1 (centres undefined) | 696 |
| O=C(CSc1nc(-c2ccccc2)c(-c2ccccc2)o1)NCCCO | 760 |
| CC(C)c1noc(C2CCCCN2Cc2cc(F)cc(F)c2)n1 (centres undefined) | 1170 |
| CCS(=O)(=O)N1CCCc2cc(C(=O)Nc3ccc4c(c3)OCCO4)ccc21 | 858 |
| O=S(=O)(C1CC1)N1CCCCC1c1nncn1Cc1ccccc1 (centres undefined) | 722 |
| COc1cccc(Cn2nnc(C(=O)O)c2C(C)C)c1 | 694 |
| CC1CNc2c(cccc2S(=O)(=O)N[C@@H](CCCN=C(N)N)C(=O)N2CC[C@@H](C)C[C@@H]2C(=O)O)C1 (some centres undefined) | 822 |
| Cc1cc(C)n(-c2ccnc(N3CCC(C(=O)N4CCC5(CC4)OCCO5)CC3)n2)n1 | 712 |
| CC1=C(c2ccc(C)c(C)c2)S(=O)(=O)N=C1N1CCCN(C(=O)C(C)(C)C)CC1 | 903 |
| CN1c2cc(C(=O)NC3CCN(Cc4ccccc4)CC3)ccc2C(=O)N2CCCCC21 (centres undefined) | 586 |
| Cc1noc2nc(C)n(CC(=O)Nc3ccccc3Br)c(=O)c12 | 766 |
| Cc1ccc(S(=O)(=O)N2CCC(CCNC(=O)NC(C)(C)C)CC2)cc1 | 885 |
| O=C(CCc1csc(NC(=O)NC2CCCCC2)n1)NCCC1=CCCCC1 | 843 |
| O=C(CSc1ncnc2c1[nH]c1ccccc12)N1CCc2ccccc2C1 | 842 |

| SMILES | RP-LC retention time [s] |
| --- | --- |
| CCOc1cc(=O)n2c(c1C(=O)N1CCCc3ccccc31)CCCC2 | 707 |
| Cc1ccccc1N(C)C(=O)C1CCCN(c2ncnc3c2nc2n3CCCCC2)C1 (centres undefined) | 870 |
| CCCc1ccc(S(=O)(=O)N2CCC3(CC2)CCC(O)(CN2CCCC2)CC3)cc1 | 735 |
| O=C(c1cn2ccnc(-c3ccccc3)c2n1)N1CCN(C(=O)c2ccco2)CC1 | 686 |
| Cc1ccc(NC(=O)C2CCCN(c3nnc(C)c4c(C)n(-c5ccccc5)nc34)C2)cc1C (centres undefined) | 820 |
| O=C(NCc1cccc(Br)c1)C1CCN(c2nnc(-c3ccccc3)o2)CC1 | 885 |
| O=C(NCc1cc(F)cc(F)c1)C1CCN(c2cc(N3CCSCC3)ncn2)CC1 | 679 |
| O=C(O)CCCC(=O)N1C[C@H]2C[C@@H](C1)c1cccc(=O)n1C2 | 564 |
| Cc1sc(C)c(S(=O)(=O)N2CCCCCC2)c1-c1cc(C(F)(F)F)on1 | 1200 |
| O=C(NC1CCCC1)C1CCCN(c2nnc3ccc(Cl)cn23)C1 (centres undefined) | 648 |
| CC1CCCCN1CCNC(=O)c1nnc(-c2ccc(S(=O)(=O)N(C)C)cc2)o1 (centres undefined) | 620 |
| O=C(NCc1ccc(F)cc1)C1CCN(S(=O)(=O)c2cc(C(=O)N3CCOCC3)cs2)CC1 | 739 |
| O=C(Cn1c(C2CC(=O)N(C3CCCCC3)C2)nc2ccccc21)N1CCOCC1 (centres undefined) | 630 |
| CCCCNC(=O)CC1CCN(C(=O)c2[nH]c(C)c(C(=O)OC)c2C)CC1 | 689 |
| c1cc2c(cc1-c1noc(C3CCC3)n1)ncn2CCN1CCCC1 | 596 |
| CCCSCCCNC(=O)COc1ccccc1-c1nnc(-c2ccccc2)o1 | 1160 |
| Cc1cc(C(=O)NCCc2c[nH]c3ccccc23)c2c(=O)n(C)c(=O)n(C)c2n1 | 742 |
| O=C(COc1ccccc1F)Nc1nnc(C2CCCCC2)o1 | 766 |
| Cc1nc(N2CCOCC2)cc(N2CCN(C(=O)c3cnn(-c4ccccc4)n3)CC2)n1 | 587 |
| CCn1c(-c2nonc2N)nc2c(C#CC(C)(C)O)ncc(OC[C@H]3CCCNC3)c21 | 645 |
| CCc1nc2cc(-c3noc(-c4ccc5c(c4)OCO5)n3)ccc2o1 | 1150 |
| Cn1c(N2CCCC(C(=O)NCc3cccs3)C2)cc(=O)n(C)c1=O (centres undefined) | 650 |
| O=C(Nc1ccccc1)C(=O)Nc1ccccc1[N+](=O)[O-] | 917 |
| Cc1ccc(NC(=O)C2CCN(S(=O)(=O)c3ccc4c(c3)sc(=O)n4C(C)C)CC2)cc1C | 953 |

The next lines start with the values.

| RP-LC retention time [s] | SMILES |
| --- | --- |
| 631 | COc1ccc(NC(=O)c2cnc(N3CCN(C4CCCCC4)CC3)nc2N)cc1 |
| 585 | Cn1cnc2cc(-c3noc(CNC(=O)c4ccco4)n3)ccc21 |
| 834 | CC(=O)c1c(N(C)CCO)nc2ccc(Cl)cc2c1-c1ccccc1 |
| 915 | Cc1ccc(-c2cc(C(=O)NC3CC3)n(C)c2)cc1 |
| 775 | Cc1cc(C2CCCN2C(=O)Cc2ccc(F)cc2)no1 (centres undefined) |
| 730 | O=C(NCc1ccc(F)cc1)N1CCC(n2c(-c3ccco3)nc3cccnc32)C1 (centres undefined) |
| 943 | Cc1nn(C)c(=O)c2cc(S(=O)(=O)N3CCC(Cc4ccccc4)CC3)cn12 |
| 784 | CCn1nccc1C(=O)NCCn1c(=O)n(Cc2cccc(C)c2)c2cccnc21 |
| 1040 | CCc1ccc(Oc2cc(N3CCC(C(=O)NCCC(C)C)CC3)ncn2)cc1 |
| 1010 | COc1cccc(-c2noc(Cc3nnc(-c4cccc(Br)c4)o3)n2)c1OC |
| 1060 | O=C(Nc1ccc2ccccc2c1)c1cccc(F)c1 |
| 648 | COc1ccc(C)cc1NC(=O)N1CCN(c2cnn3c(C)nnc3c2)CC1 |
| 947 | Cc1ccc(C)c(S(=O)(=O)N2CCCN(c3ccc(=O)n(-c4ccccc4)n3)CC2)c1 |
| 778 | Cc1ccc(CNC2=NCCNC23CCN(S(=O)(=O)c2ccc(Cl)cc2)CC3)cc1 |
| 805 | CC1=C(c2ccccc2)S(=O)(=O)N=C1N1CCCN(C(=O)c2ccc(F)cc2)CC1 |
| 894 | COc1cc(NC(=O)CN2C(=O)C(O)(c3cccc(F)c3)c3ccccc32)cc(OC)c1 (centres undefined) |
| 989 | COc1ccc(-c2noc(-c3ccc(N4CCN(C(=O)c5ccco5)CC4)nc3)n2)cc1 |
| 885 | Cc1ccc2c(c1)N(Cc1ccccc1F)N=C(C(=O)N1CCCC1)S2(=O)=O |
| 624 | COc1ccc(CN(C)Cc2cc(=O)n3cc(Cl)ccc3n2)cc1 |
| 1040 | Cc1cc(Cl)ccc1NC(=O)c1cc(C2CC2)on1 |
| 783 | CN1c2cc(F)ccc2C(=O)NC12CCN(C(=O)Cc1ccccc1Cl)CC2 |

| RP-LC retention time [s] | SMILES |
| --- | --- |
| 774 | CC(=O)N(C)c1ccc(NC(=O)c2c(-c3ccccc3Cl)noc2C)cc1 |
| 840 | Cc1ccc(CNC(=O)c2csc(-c3cn(C)c4ncccc34)n2)cc1C |
| 712 | O=C(c1ccc(Cn2cncn2)cc1)N1CCN(c2ccccc2F)CC1 |
| 634 | O=C(c1ccc(CS(=O)(=O)c2c(Cl)cccc2Cl)o1)N1CCN(c2ccccn2)CC1 |
| 632 | CCn1cc(CC(=O)NCc2ccc(N3CCOCC3)cc2)c2cccnc21 |
| 907 | COc1cc(OC)cc(-c2nnc(Cc3nc(-c4cccc(F)c4)no3)o2)c1 |
| 778 | Cc1ccc(OCc2nc(-c3cccc(-c4ccn[nH]4)c3)no2)cc1 |
| 889 | COc1cc(NS(=O)(=O)c2ccc(-c3c(C)noc3C)cc2)cc(OC)c1 |
| 899 | Cc1ccc2[nH]cc(CCN3CC(C(=O)Nc4ccc(F)c(Cl)c4)CC3=O)c2c1 (centres undefined) |
| 895 | COC(=O)C1=CN(c2ccc(F)cc2C)c2cc(F)ccc2S1(=O)=O |
| 748 | COCCCNC(=O)C1CCN(C2=NS(=O)(=O)C(c3ccc(Cl)cc3)=C2C)CC1 |
| 941 | COc1ccc(Cl)cc1N1CC(c2nc(-c3ccc4c(c3)OCO4)no2)CC1=O (centres undefined) |
| 800 | CCCCNC(=O)C1CCN(Cc2cc3ccccc3n2Cc2cccc(C)c2)CC1 |
| 1010 | COc1ccc(-c2noc(C3CC(=O)N(c4ccc(OC)c(Cl)c4)C3)n2)c(OC)c1 (centres undefined) |
| 728 | O=C(NCCc1c[nH]c2ccccc12)c1ccc(N2C(=O)CCS2(=O)=O)cc1 |
| 668 | COc1ccc(CCNC(=O)c2cc3c(=O)n(C)c(=O)n(C)c3s2)cc1OC |
| 1150 | COc1cccc(Cn2c(=O)c3sccc3n(Cc3nc(-c4ccccc4C)no3)c2=O)c1 |
| 890 | Cc1cc2nc(C(=O)Nc3ccc(C#N)cc3)cc(C)n2n1 |
| 895 | CCCn1c(=O)c(C)nc2cc(-c3noc(C4CC(=O)N(c5ccccc5)C4)n3)ccc21 (centres undefined) |
| 987 | CCOc1ccc(-c2nn3c(CSc4ccccc4)nnc3s2)cc1OC |
